Measured values as given in patent publication US9409943B2 (Bristol-Myers Squibb Company, priority 2012, dated 2016).
Like-named read-outs stand apart in the source and are kept apart here.

Legend:
HCV GT1a(H77) replicon = assay: HCV replicon luciferase reporter assay, genotype 1a; assay type: cell-based, HCV genotype 1a; conditions: Hepatitis C virus, 72 h, HUH-7 cells, 3 days incubation
Excerpt: A stable HCV GT1a(H77) replicon luciferase reporter cell line (Yanagi M, Purcell R H, Emerson S U, et al. Transcripts from a single full-length cDNA clone of hepatitis C virus are infectious when directly transfected into the liver of a chimpanzee. Proc Natl Acad Sci USA 1997; 94(16):8738-8743) was generated as described previously for the genotype 1b(Con1) replicon luciferase cell line. The replicon construct was modified by introducing mutations into the genes encoding the NS3 helicase domain (proline replaced by leucine at position 1496) and NS5A (serine to isoleucine at position 2204) to improve replication in cell culture.
(§1) HCV replicon luciferase assays were developed to monitor the inhibitory effects of compounds described in the disclosure on HCV genotypes 1a and 1b viral replication. HUH-7 cells, constitutively expressing the HCV replicon, were grown in Dulbecco's Modified Eagle Media (DMEM) (Gibco-BRL) containing 10% Fetal calf serum (FCS) (Sigma) and 1 mg/mL G418 (Gibco-BRL). Compounds were serially diluted 3 folds in DMSO for a twenty-point titration and subsequently transferred to sterile 384-well tissue-culture treated plates (Corning cat #3571). The plates were then seeded with 50 μL of cells at a density of 3.0×10^3 cells/well in DMEM containing 4% FCS (final DMSO concentration at 0.5%). After 3 days incubation at 37° C., cells were analyzed for Renilla Luciferase activity using the EnduRen as substrate (Promega cat #E6485). The EnduRen substrate was diluted in DMEM and then added to the plates to a final concentration of 7.5 μM. The plates were incubated for 2 hrs at 37° C. and then read immediately for 30 seconds with Viewlux Imager (PerkinElmer) using a luminescence program. To assess cytotoxicity of compounds, CC50 values were generated by multiplexing the EnduRen-containing plates with Cell Titer-Blue (Promega, cat # G8082). Cell-Titer Blue (3 μL) was added to each well and incubated for 8 hrs at 37° C. The fluorescence signal from each well was read, with an excitation wavelength at 525/10 nm and an emission wavelength of 598/10 nm, using the Viewlux Imager.
(§2) The EC50 values for compounds were calculated by using a four-parameter logistic equation: y=A+((B−A)/(1+((C/x)^D))), where A and B denotes minimal and maximal % inhibition, respectively, C is the EC50, D is the hill slope and x represents compound concentration.

HCV GT1b(Con1) replicon = assay: HCV replicon luciferase reporter assay, genotype 1b; assay type: cell-based, HCV genotype 1b; conditions: Hepatitis C virus, 72 h, HUH-7 cells, 3 days incubation
Excerpt: An HCV GT1b(Con1) replicon cell system was established as described by Lohmann V, Korner F, Koch J, Herian U, Theilmann L, Bartenschlager R., Science 285(5424):110-3 (1999) and modified to introduce a luciferase reporter (Krieger N, Lohmann V, and Bartenschlager R, J. Virol. 75(10):4614-4624 (2001)). cDNA encoding a humanized form of the Renilla luciferase gene, and a linker sequence fused directly to the 3′-end of the luciferase gene were introduced into the replicon construct using an Asc1 restriction site located in core, directly upstream of the neomycin marker gene. The adaptive mutation at position 1179 (serine to isoleucine) was also introduced (Blight K J, Kolykhalov, A A, Rice, C M, Science 290(5498):1972-1974). A stable cell line constitutively expressing this HCV replicon construct was generated by first linearizing plasmid DNAs with ScaI. RNA transcripts were synthesized in vitro using the T7 MegaScript transcription kit (Ambion, Austin, Tex.) according to manufacturer's directions. In vitro transcripts of the cDNA were transfected into the human hepatoma cell line, HUH-7. […] Resulting cell lines were characterized for positive and negative strand RNA production and protein production over time.
as §1, §2

**Q.** For C[C@@H]1CC/C=C\[C@@H]2C[C@@]2(C(=O)NS(=O)(=O)C2(C)CC2)NC(=O)[C@@H]2C[C@@H](OC(=O)Nc3ccc(F)cc3)CN2C(=O)[C@@H](NC(=O)OC(C)(C)C)[C@H](C)C1 [Compound 1304], which EC50 (HCV GT1a(H77) replicon; read-out: LE_1a (EC50)) is on record?
**A.** 62.5 nM

**Q.** What about the EC50 (HCV GT1a(H77) replicon; read-out: LE_1a (EC50, range)) of the same molecule?
**A.** 35 to 62.5 nM

**Q.** What about the EC50 (HCV GT1b(Con1) replicon; read-out: LE_1b (EC50)) of the same molecule?
**A.** 20.6 nM

**Q.** And the EC50 (HCV GT1b(Con1) replicon; read-out: LE_1b (EC50, range))?
**A.** 5.01 to 35 nM

**Q.** Cc1cc(C)c(NC(=O)O[C@@H]2C[C@H]3C(=O)N[C@]4(C(=O)NS(=O)(=O)C5(C)CC5)C[C@H]4/C=C\CC[C@@H](C)C[C@@H](C)[C@H](NC(=O)OC(C)(C)C)C(=O)N3C2)c(Cl)c1 [Compound 1306] was tested. Which EC50 (HCV GT1a(H77) replicon; read-out: LE_1a (EC50, range)) did it give?
**A.** 5.01 to 35 nM

**Q.** And the EC50 (HCV GT1b(Con1) replicon; read-out: LE_1b (EC50, range))?
**A.** 5.01 to 35 nM

**Q.** With C[C@H]1CC/C=C\[C@@H]2C[C@@]2(C(=O)NS(=O)(=O)C2(C)CC2)NC(=O)[C@@H]2C[C@@H](OC(=O)N3Cc4cccc(F)c4C3)CN2C(=O)[C@@H](NC(=O)OC(C)(C)C)[C@H](C)C1 [Compound 1314, (2R,6S,7R,9S,13aS,14aR,16aS,Z)-6-((tert-butoxycarbonyl)amino)-7,9-dimethyl-14a-(((1-methylcyclopropyl)sulfonyl)carbamoyl)-5,16-dioxo-1,2,3,5,6,7,8,9,10,11,13a,14,14a,15,16,16a-hexadecahydrocyclopropa[e]pyrrolo[1,2-a][1,4]diazacyclopentadecin-2-yl 4-fluoroisoindoline-2-carboxylate] as the molecule, how does the EC50 (HCV GT1a(H77) replicon; read-out: LE_1a (EC50, range)) read?
**A.** 5.01 to 35 nM

**Q.** What about the EC50 (HCV GT1b(Con1) replicon; read-out: LE_1b (EC50, range)) of the same molecule?
**A.** 1.01 to 5 nM

**Q.** What does the source list for C[C@@H]1CC/C=C\[C@@H]2C[C@@]2(C(=O)NS(=O)(=O)C2(C)CC2)NC(=O)[C@@H]2C[C@@H](OC(=O)Nc3ccccc3C(F)(F)F)CN2C(=O)[C@@H](NC(=O)OC(C)(C)C)[C@H](C)C1 [Compound 1302]?
**A.** EC50 (HCV GT1a(H77) replicon; read-out: LE_1a (EC50, range)): 5.01 to 35 nM; EC50 (HCV GT1b(Con1) replicon; read-out: LE_1b (EC50, range)): 1.01 to 5 nM

**Q.** For C[C@@H]1CC/C=C\[C@@H]2C[C@@]2(C(=O)NS(=O)(=O)C2(CF)CC2)NC(=O)[C@@H]2C[C@@H](OC(=O)c3ccccc3C(F)(F)F)CN2C(=O)[C@@H](NC(=O)OC(C)(C)C(F)(F)F)[C@H](C)C1 [Compound 1002, (2R,6S,7R,9R,13aS,14aR,16aS,Z)-14a-(((1-(fluoromethyl)cyclopropyl)sulfonyl)carbamoyl)-7,9-dimethyl-5,16-dioxo-6-((((1,1,1-trifluoro-2-methylpropan-2-yl)oxy)carbonyl)amino)-1,2,3,5,6,7,8,9,10,11,13a,14,14a,15,16,16a-hexadecahydrocyclopropa[e]pyrrolo[1,2-a][1,4]diazacyclopentadecin-2-yl 2-(trifluoromethyl)benzoate], which EC50 (HCV GT1a(H77) replicon; read-out: LE_1a (EC50, range)) is on record?
**A.** 5.01 to 35 nM

**Q.** What about the EC50 (HCV GT1b(Con1) replicon; read-out: LE_1b (EC50, range)) of the same molecule?
**A.** 1.01 to 5 nM

**Q.** Which results are given for C[C@@H]1CC/C=C\[C@@H]2C[C@@]2(C(=O)NS(=O)(=O)C2(C)CC2)NC(=O)[C@@H]2C[C@@H](OC(=O)c3ccc4c(c3)OCCO4)CN2C(=O)[C@@H](NC(=O)OC(C)(C)C)[C@H](C)C1 [Compound 1013, (2R,6S,7R,9R,13aS,14aR,16aS,Z)-6-((tert-butoxycarbonyl)amino)-7,9-dimethyl-14a-(((1-methylcyclopropyl)sulfonyl)carbamoyl)-5,16-dioxo-1,2,3,5,6,7,8,9,10,11,13a,14,14a,15,16,16a-hexadecahydrocyclopropa[e]pyrrolo[1,2-a][1,4]diazacyclopentadecin-2-yl 2,3-dihydrobenzo[b][1,4]dioxine-6-carboxylate]?
**A.** EC50 (HCV GT1a(H77) replicon; read-out: LE_1a (EC50, range)): 1.01 to 5 nM; EC50 (HCV GT1b(Con1) replicon; read-out: LE_1b (EC50, range)): 1.01 to 5 nM

**Q.** Which results are given for C[C@@H]1CC/C=C\[C@@H]2C[C@@]2(C(=O)NS(=O)(=O)C2(C)CC2)NC(=O)[C@@H]2C[C@@H](OC(=O)Nc3ccccc3C(F)(F)F)CN2C(=O)[C@@H](NC(=O)OC(C)(C)C(F)(F)F)[C@H](C)C1 [Compound 1307]?
**A.** EC50 (HCV GT1a(H77) replicon; read-out: LE_1a (EC50, range)): 1.01 to 5 nM; EC50 (HCV GT1b(Con1) replicon; read-out: LE_1b (EC50, range)): 1.01 to 5 nM

**Q.** Which EC50 (HCV GT1a(H77) replicon; read-out: LE_1a (EC50, range)) does the source give for COc1ccc(C(=O)O[C@@H]2C[C@H]3C(=O)N[C@]4(C(=O)NS(=O)(=O)C5(C)CC5)C[C@H]4/C=C\CC[C@@H](C)C[C@@H](C)[C@H](NC(=O)OC(C)(C)C)C(=O)N3C2)cc1 [Compound 1003, (2R,6S,7R,9R,13aS,14aR,16aS,Z)-6-((tert-butoxycarbonyl)amino)-7,9-dimethyl-14a-(((1-methylcyclopropyl)sulfonyl)carbamoyl)-5,16-dioxo-1,2,3,5,6,7,8,9,10,11,13a,14,14a,15,16,16a-hexadecahydrocyclopropa[e]pyrrolo[1,2-a][1,4]diazacyclopentadecin-2-yl 4-methoxybenzoate] here?
**A.** 5.01 to 35 nM

**Q.** What about the EC50 (HCV GT1b(Con1) replicon; read-out: LE_1b (EC50, range)) of the same molecule?
**A.** 5.01 to 35 nM

**Q.** Which results are given for Cc1cc(C)c(NC(=O)O[C@@H]2C[C@H]3C(=O)N[C@]4(C(=O)NS(=O)(=O)C5(C)CC5)C[C@H]4/C=C\CC[C@@H](C)C[C@@H](C)[C@H](NC(=O)OC(C)(C)C(F)(F)F)C(=O)N3C2)c(Cl)c1 [Compound 1311]?
**A.** EC50 (HCV GT1a(H77) replicon; read-out: LE_1a (EC50, range)): 35 to 62.5 nM; EC50 (HCV GT1b(Con1) replicon; read-out: LE_1b (EC50, range)): 5.01 to 35 nM
